In PubChem BioAssay AID1645864 (Buhrlage Lab, Dana-Farber Cancer Institute and Novartis …, 2021):
Calls of active or inactive are those of the source.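 Rule for the calls: active = maximal inhibition of USP17 at or above 30% in the confirmation dose-response, a value not among the printed readouts; inactive = the rest.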

These compounds were tested against Ubiquitin carboxyl-terminal hydrolase 17-like protein 5 (Homo sapiens) (UniProt A8MUK1) (assay: ubiquitin-specific protease 17 DUB inhibitors, concentration-effect assay, cell-free, verification of initial screening actives (AID 1645864)). Conditions: purified USP17, ubiquitin-rhodamine cleavage fluorescence, 3 h.
Sequence of Ubiquitin carboxyl-terminal hydrolase 17-like protein 5 (Homo sapiens) (A8MUK1 whole entry, looked up): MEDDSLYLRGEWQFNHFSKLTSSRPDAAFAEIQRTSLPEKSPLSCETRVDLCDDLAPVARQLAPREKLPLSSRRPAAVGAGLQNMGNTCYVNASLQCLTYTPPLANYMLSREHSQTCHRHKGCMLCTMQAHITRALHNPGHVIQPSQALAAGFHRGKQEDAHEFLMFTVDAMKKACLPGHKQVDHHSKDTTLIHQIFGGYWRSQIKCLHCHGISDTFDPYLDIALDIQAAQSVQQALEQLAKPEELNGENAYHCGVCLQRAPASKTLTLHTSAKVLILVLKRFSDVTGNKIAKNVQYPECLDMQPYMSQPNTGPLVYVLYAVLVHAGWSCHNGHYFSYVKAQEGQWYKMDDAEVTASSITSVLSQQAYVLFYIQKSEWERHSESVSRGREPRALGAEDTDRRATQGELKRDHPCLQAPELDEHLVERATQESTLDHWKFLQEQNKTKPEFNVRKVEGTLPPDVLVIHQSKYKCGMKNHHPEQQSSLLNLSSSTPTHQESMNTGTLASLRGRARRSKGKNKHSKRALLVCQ

Compound | IC50
Cc1cccc(NC(=O)CSc2ncnc3c2sc2nc(CC(C)C)c4c(c23)CCC4)c1 | 44.1 µM
Cc1ccc(NC(=O)Cn2c(Nc3cccc(C)c3)nc(C)cc2=O)cc1 | 42.1 µM
Cc1ccc(Cn2nnc(-c3noc(-c4ccc[nH]4)n3)c2C)cc1 | > 50 µM (inactive)
CC(OC(=O)CNC(=O)c1ccc(Br)cc1)C(=O)Nc1ccc2c(c1)OCCO2 (stereo unspecified) | 30.4 µM
Cc1ccc(C2c3cccn3CCN2C(=O)Nc2ccccc2)cc1 (stereo unspecified) | > 50 µM (inactive)
COC1=C(C2=C(OC)C(=O)c3cc4c(c(O)c3C2=O)C(=O)OC(C)C4)C(=O)c2c(cc3c(c2O)C(=O)OC(C)C3)C1=O (stereo unspecified) | 0.0977 µM
O=C1CC(O)C(C2=CC(=O)c3c(O)cccc3C2=O)O1 (stereo unspecified) | 0.233 µM
CCCc1nc2sc3c(NCCN4CCOCC4)ncnc3c2c2c1CCC2 | > 50 µM (inactive)
Cn1cc(-c2cnc(-c3cccc(F)c3)nc2)cc1C(=O)NCc1cccnc1 | 37.8 µM
Cc1cc(O)cc2cc3c(c(O)c12)C(=O)CCC3O (stereo unspecified) | > 50 µM (inactive)
COc1c2c(cc3cc(O)c4c(=O)cc(C)oc4c13)CCC2=O | 34.3 µM
Cc1noc(C)c1CN1CC[C@H]2O[C@H](C(=O)NCc3ccco3)CC[C@H]21 | > 50 µM (inactive)
CC(C(=O)NCc1ccc2c(c1)OCO2)N1CCN(c2ccc(O)cc2)CC1 (stereo unspecified) | 30.1 µM
COCCn1ccc2nc(C)c(C(=O)Nc3ccc4c(c3)OCCO4)cc2c1=O | 37 µM
Cc1ccn(-c2ccc(NC(=O)C3CCCCC3)cc2)n1 | 20.2 µM
CC(C)Cc1nc2sc3c(NCCN4CCOCC4)ncnc3c2c2c1CCC2 | > 50 µM (inactive)
Cc1ccc2c(=O)c3c([nH]c2c1C)CCN(CC(=O)NCc1ccc2c(c1)OCO2)C3 | 32.8 µM
COc1c2nc3ccccc3oc-2cc(=O)c1OC | 23.7 µM
COc1cc(Cn2cnc3c([nH]c4ccc(Br)cc43)c2=O)cc(OC)c1 | 3.75 µM

Compound | IC50
COc1cccc(N2CCN(C(=O)c3cc(NC(C)=O)cc4nc(C)ccc34)CC2)c1 | > 50 µM (inactive)
Cc1ccc(-c2nc(-c3cccs3)cc(C(F)(F)F)c2C#N)cc1 | > 50 µM (inactive)
O=C(Nc1ccc2sccc2c1)c1ccc(F)cc1 | 40.6 µM
COc1cccc2sc(N3CCN(c4nc5ccccc5s4)CC3)nc12 | 38 µM
CCOc1ccc2c(c1)c(=O)c(C(=O)c1ccccc1)cn2CC(=O)Nc1ccc2c(c1)OCCO2 | 20.4 µM
COc1cccc(OCCCn2c(C(C)NC(=O)c3ccco3)nc3ccccc32)c1 (stereo unspecified) | 33.5 µM
COCCNC(=O)Cn1c(=O)n(Cc2ccccc2)c(=O)c2c3c(sc21)CCC3 | 33.5 µM
O=C1CC(c2cc3c(cc2Br)OCO3)c2cc3c(cc2N1)OCCO3 (stereo unspecified) | 19.6 µM
CNC(=O)c1cc2nc(N(C)C)n(-c3ccccc3)c2s1 | > 50 µM (inactive)
Cc1cc(C)n(-c2ccc(C(=O)Nc3cccc(S(=O)(=O)N4CCCC4)c3)cc2)n1 | 23 µM
Nc1c(C(=O)c2cccs2)oc2nc(-c3ccccc3)cc(-c3ccco3)c12 | > 50 µM (inactive)
Cc1ccc(NC(=O)c2sc3ncn(CC(=O)N4CCN(c5ccccn5)CC4)c(=O)c3c2C)c(Br)c1 | 35.1 µM
CC1Oc2cc3c(-c4c(O)cc(O)c5c(O)c6c(cc45)OC(C)C(C)C6=O)c(O)cc(O)c3c(O)c2C(=O)C1C (stereo unspecified) | 1.25 µM
Cc1ccc(NC(=O)c2cnc(N3CCOCC3)nc2)cc1F | 28.6 µM
Cc1ccc(-c2noc(-c3nnc(SCC(=O)NC4CCCC4)n3C)n2)cc1 | 2.34 µM
COc1cc2c(cc1OC)-c1cc(Nc3ccc(Br)cc3)nc(=O)n1CC2 | 1.65 µM
COc1ccc(C(=O)CSc2ccc3nnc(CCNC(=O)c4ccc(OC)cc4)n3n2)cc1 | > 50 µM (inactive)
CC(C)(C)C(=O)NC(c1ccccc1)c1nnc(N2CCOCC2)o1 (stereo unspecified) | > 50 µM (inactive)
CC(=O)c1cccc(NC(=O)c2ccc(CN(c3ccc(C)c(C)c3)S(C)(=O)=O)cc2)c1 | > 50 µM (inactive)

Compound | IC50
COc1cccc(NC(=O)CSc2nnc(-c3cc4cccc(OC)c4o3)n2C)c1 | 11.9 µM
COc1c(C)c(C(O)C(C)O)c2[nH]c3ccc(CC=C(C)C)cc3c2c1O (stereo unspecified) | 17.1 µM
FC(F)(F)c1cccc(Nc2nnc(-c3cccnc3)s2)c1 | 5.64 µM
CCOc1ccc(NC(=O)Cn2c(=O)n(CCC(=O)NCc3ccco3)c(=O)c3ccccc32)cc1 | 5.43 µM
C=C1CCC2[C@](C)(CCC[C@]2(C)C(=O)OC)[C@H]1CCc1ccoc1C[N+](C)(C)Cc1ccccc1 (stereo partly specified) | > 50 µM (inactive)
CN1CCC(N(C)S(=O)(=O)c2ccc(NC(=O)c3cccc(OCc4ccccc4)c3)cc2)CC1 | > 50 µM (inactive)
O=c1[nH]c(C2CCN(S(=O)(=O)c3ccc(S(=O)(=O)NC4CCCCC4)cc3)CC2)nc2c1nnn2Cc1c(F)cccc1Cl | 22.1 µM
COc1ccc(CCNC(=O)CCCn2c(=O)c3ccccc3n(CC(=O)OCc3ccccc3)c2=O)cc1OC | 23.1 µM
Cc1cc(-c2nnc(SCC(=O)Nc3ccc(Br)c(C)c3)n2N)n[nH]1 | 18.7 µM
CC(CCc1ccccc1)NC(=O)C(=O)c1cn(CC(=O)N2CCOCC2)c2ccccc12 (stereo unspecified) | > 50 µM (inactive)
CN[C@H]1CC2(CCN(C(=O)CCCn3cccn3)CC2)OC[C@]1(C)O | > 50 µM (inactive)
CC(=O)c1ccc(NC(=O)c2nc3ccccc3nc2N2CCOCC2)cc1 | > 50 µM (inactive)
O=C(Nc1ccc(Oc2cccc3cccnc23)cc1)c1cccs1 | > 50 µM (inactive)
CCOc1ccc(NC(=O)Cn2c(=O)n(CCCCCC(=O)NCc3ccc(F)cc3)c(=O)c3sccc32)cc1 | 2.16 µM
CCCCc1nc2sc3c(SCC(=O)Nc4cccc(C)c4)ncnc3c2c2c1CCC2 | 14 µM
O=C(c1ccc2occc2c1)N1CCC(S(=O)(=O)c2ccc(-c3ccco3)cc2)CC1 | > 50 µM (inactive)
COc1cc(N)c(Cl)cc1C(=O)OCC(=O)c1ccc2c(c1)OCCO2 | > 50 µM (inactive)
CNC(=O)c1cc2nc(N(C)C)n(-c3ccc(F)cc3)c2s1 | > 50 µM (inactive)

Results, then the compound that gave them:

IC50 | Compound
36.4 µM | O=S1(=O)NC(=NCCc2ccc(Cl)cc2Cl)c2ccccc21
31.4 µM | Cc1cc(NC(=O)COc2ccc3oc4ccccc4c3c2)no1
> 50 µM (inactive) | O=c1cc(CNc2ccc(Br)cc2)nc2nc(-c3ccccc3)[nH]n12
> 50 µM (inactive) | N#Cc1c(-c2cccs2)cc(-c2cccs2)[nH]c1=O
> 50 µM (inactive) | Nc1ccccc1SCc1noc(-c2cccs2)n1
46.8 µM | O=C(Cn1c(=O)n(Cc2ccc3c(c2)OCO3)c(=O)c2ncccc21)c1ccccc1
3.26 µM | Cc1nc2ccc(NC(=O)COc3ccccc3[N+](=O)[O-])cc2s1
> 50 µM (inactive) | Cc1ccccc1Cn1cc(SCC(=O)Nc2ccc3c(c2)OCCO3)c2ccccc21
43.7 µM | COc1ccc(NC(=O)COc2cc(CSc3ccccc3)ncc2OC)cc1
27.4 µM | CCc1ccc(-c2nc(SCC(=O)Nc3ccc4[nH]c(=O)[nH]c4c3)n[nH]2)cc1
49.2 µM | COc1cccc(NC(=O)Nc2ccc(CCc3nc4ccccc4[nH]3)cc2)c1
> 50 µM (inactive) | CCc1ccc2c(c1)[C@]1(C(=O)N2)[C@@H]2C(=O)N(c3ccc(Cl)cc3Cl)C(=O)[C@@H]2[C@@H]2CCCN21
> 50 µM (inactive) | Cc1ccc(CNC(=O)c2cnc3ccccc3n2)cc1
24.7 µM | Cc1nc(NCc2ccccn2)c2cc(-c3ccccc3)sc2n1
24.2 µM | Cc1ccnc(NC(=O)c2ccn(COc3ccc(Cl)cc3)n2)c1
> 50 µM (inactive) | COc1cccc(-n2nnc(C(=O)Nc3ccc(C)c(C)c3)c2C)c1
36 µM | O=C(NCCCc1nc2ccccc2n1Cc1c(Cl)cccc1Cl)c1ccco1
32.8 µM | Cn1c(CCNC(=O)c2[nH]nc3c2CCc2ccccc2-3)nc2ccccc21
43.9 µM | Cn1c2ccccc2c2ncn(Cc3ccc(F)cc3)c(=O)c21
28.2 µM | O=C(COc1ccc(Cl)cc1)NCc1nnc(SCC(=O)NCc2ccc3c(c2)OCO3)o1
9.93 µM | COc1ccc(CNC(=O)Nc2cccc3ccccc23)cc1
> 50 µM (inactive) | Cc1nnc(-c2nnc(NCc3ccc(Cl)cc3)c3ccccc23)o1
2.31 µM | CC(=O)Nc1ccc(S(=O)(=O)NCc2ccc(C(=O)NCCc3ccc(Cl)cc3)cc2)cc1

IC50 | Compound
2.19 µM | O=C(Nc1ccc2ccccc2n1)c1ccc(Cl)cc1
30.5 µM | CCc1noc(-c2ccc(OCC(=O)Nc3ccc(C)cc3C)cc2)n1
30.7 µM | Cc1ccc(C(=O)NCC(=O)Nc2nc3ccccc3[nH]2)c(C)c1
28.9 µM | O=c1c2ccccc2ncn1C1CCN(S(=O)(=O)c2ccccc2F)CC1
> 50 µM (inactive) | COc1ccc(NC(=O)c2nnn(-c3ccccc3C)c2C)cc1OC
24 µM | O=C(COc1ccc(F)cc1)Nc1cnc(-c2ccc(Cl)cc2)nc1
0.127 µM | Cn1c2ccccc2c(=O)c2c(=O)n(Cc3ccccc3)c(-c3ccccc3F)nc21
> 50 µM (inactive) | COc1ccc(NC(=O)c2nc3n(n2)-c2ccccc2S(=O)(=O)N3)cn1
3.3 µM | CCOc1ccc(-c2nc(C#N)c(N3CCN(C(=O)c4ccccc4C)CC3)o2)cc1
39.8 µM | CCCCN(C)C(=O)c1cc2c(=O)n3cccc(C)c3nc2n1Cc1ccccc1
39.8 µM | Cc1nn(-c2cccc(F)c2)c2c1C(C(=O)c1ccc(Cl)s1)CC(=O)N2 (stereo unspecified)
> 50 µM (inactive) | O=C(Cc1c[nH]c2ccccc12)Nc1nc2ccccc2s1
20.1 µM | O=C(Cc1nnc2c(-c3nc(C4CC4)no3)cccn12)Nc1ccccc1
> 50 µM (inactive) | O=C(c1ccco1)N1CCN=C1SCc1ccccc1F
34.1 µM | Cc1cccc(-n2nc(C)c3c2NC(=O)CC3C(=O)c2cc3ccccc3o2)c1 (stereo unspecified)
> 50 µM (inactive) | CC(=O)CN1CC2(CCN(Cc3ccc(F)cc3)CC2)COc2ccccc2S1(=O)=O
36.6 µM | N#Cc1ccccc1Cn1c(=O)n(Cc2ccco2)c(=O)c2ccccc21
> 50 µM (inactive) | COc1ccc(NC(=O)c2nnn(-c3cccc(C)c3)c2C)cc1
> 50 µM (inactive) | O=C(CCc1nnc2n(Cc3ccc(F)cc3)c(=O)c3ccccc3n12)N1CCN(c2ccccn2)CC1
32.1 µM | CC(=O)c1ccc(NC(=O)C[n+]2cc(-c3ccc(Cl)cc3)n3c2CCC3)cc1
> 50 µM (inactive) | CCOC(=O)c1cc2c(ccn2C)n1Cc1cccc2ccccc12
> 50 µM (inactive) | Cc1ccc(C(=O)Nc2ccc3c(c2)C(=O)N(C)c2ccccc2O3)cc1C
